Laboratory results from US7262202B2, “Inhibitors of cyclin dependent kinases as anti-cancer agent” (Cyclacel Limited, priority 2001, dated 2007).
Like-named read-outs stand apart in the source and are kept apart here.

How the values were obtained:
CDK2/cyclin E = target: T1, CDK2/cyclin E (Homo sapiens, UniProt P24941); assay: CDK2/Cyclin E kinase assay (GST-Rb phosphorylation, radiolabelled ATP); type: biochemical;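 also: enzyme was His-tagged CDK2/cyclin E co-expressed in baculovirus-infected Sf9 insect cells and purified over a metal-chelate column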
T1 construct: His; made in house; host or cells: Sf9 insect cells (baculovirus)

human tumour cell lines = assay: cell-based anti-proliferative assays
Text: These assays, including methods for their performance, are described in more detail in Example 3. Using such cell line and enzymes assays it may be determined whether a compound is anti-proliferative in the context of the present invention.
Selected compounds from the above examples were subjected to a standard cellular proliferation assay using a range of different human tumour cell lines. Standard 72-h MTT (thiazolyl blue; 3-[4,5-dimethylthiazol-2-yl]-2,5-diphenyltetrazolium bromide) assays were performed (Haselsberger, K.; Peterson, D. C.; Thomas, D. G.; Darling, J. L. Anti Cancer Drugs 1996, 7, 331–8; Loveland, B. E.; Johns, T. G.; Mackay, I. R.; Vaillant, F.; Wang, Z. X.; Hertzog, P. J. Biochemistry International 1992, 27, 501–10). Human tumour cell lines were obtained from the ATCC (American Type Culture Collection, 10801 University Boulevard, Manessas, Va. 20110-2209, USA).

[1] = bound stated, (±0.05), read-out: IC50 for cdk2/cyclinE

IC50 (CDK2/cyclin E; [1]) [nM] | SMILES | anti-proliferative activity in cell-based assays (human tumour cell lines) | other results
< 1000 | Cc1c[nH]c(C)c1-c1ccnc(Nc2ccc(F)cc2)n1 [Compound 1, [4-(2,4-Dimethyl-1H-pyrrol-3-yl)-pyrimidin-2-yl]-(4-fluoro-phenyl)-amine] | – | IC50 (CDK2/cyclin E; read-out: CDK2/cyclin E (IC50)): 1000 ± 700 nM
– | Cc1c[nH]c(C)c1-c1ccnc(Nc2cccc([N+](=O)[O-])c2)n1 [Compound 2] | particularly effective anti-proliferative agents | –
< 500 | Cc1c[nH]c(C)c1-c1ccnc(Nc2ccc(I)cc2)n1 [Compound 3, [4-(2,4-Dimethyl-1H-pyrrol-3-yl)-pyrimidin-2-yl]-(4-iodo-phenyl)-amine] | – | IC50 (CDK2/cyclin E; read-out: CDK2/cyclin E (IC50)): 500 nM
< 5000 | Cc1c[nH]c(C)c1-c1ccnc(Nc2ccc(F)c(F)c2)n1 [Compound 4, (3,4-Difluoro-phenyl)-[4-(2,4-dimethyl-1H-pyrrol-3-yl)-pyrimidin-2-yl]-amine] | – | IC50 (CDK2/cyclin E; read-out: CDK2/cyclin E (IC50)): 1300 ± 400 nM
– | Cc1c[nH]c(C)c1-c1ccnc(Nc2ccc(F)cc2F)n1 [Compound 9, (2,4-Difluoro-phenyl)-[4-(2,4-dimethyl-1H-pyrrol-3-yl)-pyrimidin-2-yl]-amine] | – | melting point: 219 to 220 °C
– | Cc1[nH]c(C#N)c(C)c1-c1ccnc(Nc2cccc([N+](=O)[O-])c2)n1 [Compound 31, 3,5-Dimethyl-4-[2-(3-nitro-phenylamino)-pyrimidin-4-yl]-1H-pyrrole-2-carbonitrile] | particularly effective anti-proliferative agents | –
– | Cc1[nH]c(C#N)c(C)c1-c1ccnc(Nc2ccc(O)cc2)n1 [Compound 33, 4-[2-(4-Hydroxy-phenylamino)-pyrimidin-4-yl]-3,5-dimethyl-1H-pyrrole-2-carbonitrile] | particularly effective anti-proliferative agents | –
– | Cc1ccc(Nc2nccc(-c3c(C)[nH]c(C#N)c3C)n2)cc1[N+](=O)[O-] [Compound 37, 3,5-Dimethyl-4-[2-(4-methyl-3-nitro-phenylamino)-pyrimidin-4-yl]-1H-pyrrole-2-carbonitrile] | particularly effective anti-proliferative agents | –
– | Cc1ccc(Nc2nccc(-c3c(C)[nH]c(C#N)c3C)n2)cc1O [Compound 40, 4-[2-(3-Hydroxy-4-methyl-phenylamino)-pyrimidin-4-yl]-3,5-dimethyl-1H-pyrrole-2-carbonitrile] | particularly effective anti-proliferative agents | –
– | Cc1cc(Nc2nccc(-c3c(C)[nH]c(C#N)c3C)n2)ccc1F [Compound 41, 4-[2-(4-Fluoro-3-methyl-phenylamino)-pyrimidin-4-yl]-3,5-dimethyl-1H-pyrrole-2-carbonitrile] | particularly effective anti-proliferative agents | –
– | Cc1[nH]c(C(N)=O)c(C)c1-c1ccnc(Nc2ccc(F)cc2)n1 [Compound 44, 4-[2-(4-Fluoro-phenylamino)-pyrimidin-4-yl]-3,5-dimethyl-1H-pyrrole-2-carboxylic acid amide] | particularly effective anti-proliferative agents | –
< 5000 | Cc1cn(C)c(C)c1-c1ccnc(Nc2ccc(F)cc2)n1 [Compound 46, (4-Fluoro-phenyl)-[4-(1,2,4-trimethyl-1H-pyrrol-3-yl)-pyrimidin-2-yl]-amine] | particularly effective anti-proliferative agents | IC50 (CDK2/cyclin E; read-out: CDK2/cyclin E (IC50)): 1790 nM
– | Cc1[nH]c([N+](=O)[O-])c(C)c1-c1ccnc(Nc2ccc(F)cc2)n1 [Compound 47, [4-(2,4-Dimethyl-5-nitro-1H-pyrrol-3-yl)-pyrimidin-2-yl]-(4-fluoro-phenyl)-amine] | particularly effective anti-proliferative agents | –
< 1000 | Cc1[nH]c(Br)c(C)c1-c1ccnc(Nc2ccc(F)cc2)n1 [Compound 50, [4-(5-Bromo-2,4-dimethyl-1H-pyrrol-3-yl)-pyrimidin-2-yl]-(4-fluoro-phenyl)-amine] | – | –
< 1000 | Cc1[nH]c(Cl)c(C)c1-c1ccnc(Nc2ccc(F)cc2)n1 [Compound 52, [4-(5-Chloro-2,4-dimethyl-1H-pyrrol-3-yl)-pyrimidin-2-yl]-(4-fluoro-phenyl)-amine] | – | –
